Converted amounts (≈) assume the structure as drawn. Where a name gives a salt, the structure may show the parent alone.
Legend:
[1] = physchem; conditions: thermodynamic from solid
Procedure: Experimental method: representative compounds 2, 4 and 7 were selected for solubility determination, and retapamulin hydrochloride was used as a control. 1 mg of each sample was taken and quantitatively dissolved in a 10 mL volumetric flask, and the absorption peak area was measured by a high-performance liquid chromatography; then, the saturated solutions of the representative compounds 2, 4 and 7 and the control drug retapamulin were diluted 10-fold, and the absorption peak area was determined by HPLC; their respective solubility was obtained by calculating the absorption peak area.
The experimental instrument was Shimadzu LC-16, the chromatographic column was Hypersil C18 ODS (4.6×250 mm×5 μm), the flow rate was 1.0 mL/min, the detection wavelength was 300 nm, and the mobile phase was 0.05 mol/L of aqueous acetic acid solution:acetonitrile=30:70.

[2] = tested on: Staphylococcus epidermidis ATCC 12228; experiment: MIC, microbroth dilution, standard strains; format: cell-based; conditions: ATCC12228, read-out: Minimum inhibitory concentration
Procedure: (§1) The minimum inhibitory concentration (MIC) of the pleuromutilin derivative containing thiazole-pyridine benzyl quaternary ammonium salt side chain was tested with moxifloxacin as a positive control (purchased from Shanghai Macklin Biochemical Technology Co., Ltd.) using a microbroth dilution method.
(§2) Standard strains include gram-positive bacteria: Staphylococcus epidermidis ATCC 12228, Staphylococcus aureus ATCC 29213, ATCC 25923 and methicillin-resistant Staphylococcus aureus ATCC 33591; gram-negative bacteria: Salmonella ATCC 14028, Acinetobacter baumannii ATCC 19606, Escherichia coli ATCC 25922 and CMCC 44103, all the strains were purchased from the American Type Culture Collection.

[3] = tested on: Escherichia coli ATCC 25922; experiment: MIC, microbroth dilution, standard strains; format: cell-based; conditions: ATCC25922, read-out: Minimum inhibitory concentration
Procedure: as §1, §2

[4] = tested on: Escherichia coli CMCC 44103; experiment: MIC, microbroth dilution, standard strains; format: cell-based; conditions: CMCC44103, read-out: Minimum inhibitory concentration
Procedure: as §1, §2

[5] = tested on: Staphylococcus aureus ATCC 29213; experiment: MIC, microbroth dilution, standard strains; format: cell-based; conditions: ATCC29213, read-out: Minimum inhibitory concentration
Procedure: as §1, §2

[6] = tested on: methicillin-resistant Staphylococcus aureus ATCC 33591; experiment: MIC, microbroth dilution, standard strains; format: cell-based; conditions: ATCC33591, read-out: Minimum inhibitory concentration
Procedure: as §1, §2

[7] = tested on: Acinetobacter baumannii ATCC 19606; experiment: MIC, microbroth dilution, standard strains; format: cell-based; conditions: ATCC19606, read-out: Minimum inhibitory concentration
Procedure: as §1, §2

[8] = tested on: Staphylococcus aureus ATCC 25923; experiment: MIC, microbroth dilution, standard strains; format: cell-based; conditions: ATCC25923, read-out: Minimum inhibitory concentration
Procedure: as §1, §2

[9] = tested on: Salmonella ATCC 14028; experiment: MIC, microbroth dilution, standard strains; format: cell-based; conditions: ATCC14028, read-out: Minimum inhibitory concentration
Procedure: as §1, §2

[10] = tested on: multidrug-resistant Pseudomonas aeruginosa (MDR-PA) 18-993; experiment: MIC, clinical drug-resistant bacteria; format: cell-based; conditions: read-out: Minimum inhibitory concentration against clinical drug-resistant bacteria
Procedure: (§3) The minimum inhibitory concentration (MIC) of the pleuromutilin derivative containing thiazole-pyridine benzyl quaternary ammonium salt side chain was tested with moxifloxacin as a positive control (purchased from Shanghai Macklin Biochemical Technology Co., Ltd.) using a microbroth dilution method. At the same time, the pleuromutilin derivative containing thiazole-pyridine benzyl quaternary ammonium salt side chain of the invention was compared with the marketed pleuromutilin antibiotics, such as retapamulin (purchased from Nanjing Chemlin Chemical Industry Co., Ltd.), tiamulin (purchased from Shanghai Yuanye Bio-Technology Co., Ltd) and valnemulin (purchased from Shanghai Acmec Biochemical Co., Ltd), in order to screen out pleuromutilin derivatives with better activity.
(§4) Clinical resistant bacteria include multidrug-resistant Pseudomonas aeruginosa (MDR-PA) 18-993, 18-756 and 18-126, multidrug-resistant Klebsiella pneumoniae (MDR-KP) 18-893, 18-754 and 18-1482, methicillin-resistant Staphylococcus aureus (MRSA) 18-171, 18-209 and 18-575, vancomycin-resistant Enterococcus faecalis (VRE) 18-94, 18-80 and 18-507, and carbapenem-resistant Acinetobacter baumannii (CR-AB) 18-184, 18-560 and 18-882, all the clinical drug-resistant strains were from Huashan Hospital, Fudan University.

[11] = tested on: carbapenem-resistant Acinetobacter baumannii (CR-AB) 18-560; experiment: MIC, clinical drug-resistant bacteria; format: cell-based; conditions: read-out: Minimum inhibitory concentration against clinical drug-resistant bacteria
Procedure: as §3, §4

[12] = tested on: multidrug-resistant Pseudomonas aeruginosa (MDR-PA) 18-126; experiment: MIC, clinical drug-resistant bacteria; format: cell-based; conditions: read-out: Minimum inhibitory concentration against clinical drug-resistant bacteria
Procedure: as §3, §4

[13] = tested on: vancomycin-resistant Enterococcus faecalis (VRE) 18-507; experiment: MIC, clinical drug-resistant bacteria; format: cell-based; conditions: read-out: Minimum inhibitory concentration against clinical drug-resistant bacteria
Procedure: as §3, §4

[14] = tested on: multidrug-resistant Klebsiella pneumoniae (MDR-KP) 18-893; experiment: MIC, clinical drug-resistant bacteria; format: cell-based; conditions: read-out: Minimum inhibitory concentration against clinical drug-resistant bacteria
Procedure: as §3, §4

[15] = tested on: methicillin-resistant Staphylococcus aureus (MRSA) 18-575; experiment: MIC, clinical drug-resistant bacteria; format: cell-based; conditions: MRSA, read-out: Minimum inhibitory concentration against clinical drug-resistant bacteria
Procedure: as §3, §4

[16] = tested on: multidrug-resistant Klebsiella pneumoniae (MDR-KP) 18-754; experiment: MIC, clinical drug-resistant bacteria; format: cell-based; conditions: read-out: Minimum inhibitory concentration against clinical drug-resistant bacteria
Procedure: as §3, §4

[17] = tested on: vancomycin-resistant Enterococcus faecalis (VRE) 18-94; experiment: MIC, clinical drug-resistant bacteria; format: cell-based; conditions: read-out: Minimum inhibitory concentration against clinical drug-resistant bacteria
Procedure: as §3, §4

[18] = tested on: multidrug-resistant Pseudomonas aeruginosa (MDR-PA) 18-756; experiment: MIC, clinical drug-resistant bacteria; format: cell-based; conditions: read-out: Minimum inhibitory concentration against clinical drug-resistant bacteria
Procedure: as §3, §4

[19] = tested on: methicillin-resistant Staphylococcus aureus (MRSA) 18-209; experiment: MIC, clinical drug-resistant bacteria; format: cell-based; conditions: MRSA, read-out: Minimum inhibitory concentration against clinical drug-resistant bacteria
Procedure: as §3, §4

[20] = tested on: vancomycin-resistant Enterococcus faecalis (VRE) 18-80; experiment: MIC, clinical drug-resistant bacteria; format: cell-based; conditions: read-out: Minimum inhibitory concentration against clinical drug-resistant bacteria
Procedure: as §3, §4

[21] = tested on: carbapenem-resistant Acinetobacter baumannii (CR-AB) 18-184; experiment: MIC, clinical drug-resistant bacteria; format: cell-based; conditions: read-out: Minimum inhibitory concentration against clinical drug-resistant bacteria
Procedure: as §3, §4

[22] = tested on: methicillin-resistant Staphylococcus aureus (MRSA) 18-171; experiment: MIC, clinical drug-resistant bacteria; format: cell-based; conditions: MRSA, read-out: Minimum inhibitory concentration against clinical drug-resistant bacteria
Procedure: as §3, §4

[23] = tested on: multidrug-resistant Klebsiella pneumoniae (MDR-KP) 18-1482; experiment: MIC, clinical drug-resistant bacteria; format: cell-based; conditions: read-out: Minimum inhibitory concentration against clinical drug-resistant bacteria
Procedure: as §3, §4

[24] = tested on: carbapenem-resistant Acinetobacter baumannii (CR-AB) 18-882; experiment: MIC, clinical drug-resistant bacteria; format: cell-based; conditions: read-out: Minimum inhibitory concentration against clinical drug-resistant bacteria
Procedure: as §3, §4

Compound: C=C[C@]1(C)C[C@@H](OC(=O)CS[C@@H]2C[C@H]3CC[C@@H](C2)N3C)[C@]2(C)[C@H](C)CC[C@]3(CCC(=O)[C@H]32)[C@@H](C)[C@@H]1O [Retapamulin hydrochloride, retapamulin hydrochloride, reference compound]
- solubility ([1]; organic solvent or mixture): 1150 µg/mL
- solubility ([1]; pH 1.5, simulated gastric fluid): 230 µg/mL
- solubility ([1]; pH 7, water): 120 µg/mL

Compound: C=C[C@]1(C)C[C@@H](OC(=O)CS[C@@H]2C[C@H]3CC[C@@H](C2)N3C)[C@]2(C)[C@H](C)CC[C@]3(CCC(=O)[C@H]32)[C@@H](C)[C@@H]1O [Retapamulin, retapamulin, reference compound]
- MIC [2]: 32 µg/mL (≈ 61.8 µM)
- MIC [3]: 32 µg/mL (≈ 61.8 µM)
- MIC [4]: 32 µg/mL (≈ 61.8 µM)
- MIC [5]: 4 µg/mL (≈ 7.73 µM)
- MIC [6]: 32 µg/mL (≈ 61.8 µM)
- MIC [7]: 16 µg/mL (≈ 30.9 µM)
- MIC [8]: 4 µg/mL (≈ 7.73 µM)
- MIC [9]: 128 µg/mL (≈ 247 µM)
- MIC [10]: 128 µg/mL (≈ 247 µM)
- MIC [11]: 128 µg/mL (≈ 247 µM)
- MIC [12]: 128 µg/mL (≈ 247 µM)
- MIC [13]: > 128 µg/mL
- MIC [14]: 64 µg/mL (≈ 124 µM)
- MIC [15]: > 128 µg/mL
- MIC [16]: 128 µg/mL (≈ 247 µM)
- MIC [17]: > 128 µg/mL
- MIC [18]: > 128 µg/mL
- MIC [19]: 128 µg/mL (≈ 247 µM)
- MIC [20]: > 128 µg/mL
- MIC [21]: 128 µg/mL (≈ 247 µM)
- MIC [22]: 128 µg/mL (≈ 247 µM)
- MIC [23]: 64 µg/mL (≈ 124 µM)
- MIC [24]: 64 µg/mL (≈ 124 µM)

Compound: C=C[C@]1(C)C[C@@H](OC(=O)CSC(C)(C)CNC(=O)[C@H](N)C(C)C)[C@]2(C)[C@H](C)CC[C@]3(CCC(=O)[C@H]32)[C@@H](C)[C@@H]1O [Valnemulin, valnemulin, reference compound]
- MIC [2]: 64 µg/mL (≈ 113 µM)
- MIC [3]: 16 µg/mL (≈ 28.3 µM)
- MIC [4]: 64 µg/mL (≈ 113 µM)
- MIC [5]: 2 µg/mL (≈ 3.54 µM)
- MIC [6]: > 128 µg/mL
- MIC [7]: 2 µg/mL (≈ 3.54 µM)
- MIC [8]: 4 µg/mL (≈ 7.08 µM)
- MIC [9]: 64 µg/mL (≈ 113 µM)

Reference: US12384771B2, “Pleuromutilin derivative containing thiazole-pyridine benzyl quaternary ammonium salt side chain and preparation method and use thereof” (SHAANXI UNIVERSITY OF SCIENCE AND TECHNOLOGY, priority 2022, dated 2025)
